Reference: patent publication US20030148377A1, “Binding compounds and methods for identifying binding compounds” (priority 2000, published 2003)

Legend:
Type in all cases: cell-based
[1] = test system: Tyr phosphorylation of PLCγ1 or LAT in Jurkat cells; assay: Anti-CD3-dependent Tyr phosphorylation of PLCγ1 or LAT in Jurkat cells; conditions: CD3ε cross-linking
Method: Penetratin-containing peptides (FIG. 2A; peptide 7 (SEQ ID NO: 11) or peptide 8 (SEQ ID NO: 12)) were dissolved in DMSO and diluted to 20 μM in 500 μl of serum-free RPMI1640 medium. Ten million Jurkat cells, suspended in 500 μl of serum-free RPMI1640, were added to the peptide solutions for diluted DMSO control and incubated for 30 min at 37° C. Peptide-pretreated cells were treated with 1 μg of the anti-CD3ε mAb at 4° C. for 10 min, followed by another 10 min incubation in the presence of 5 μg of rabbit anti-mouse Ig. Cells were activated by shifting the temperature to 37° C. for 2 min and subsequently lysed in 1% NP40 lysis buffer. Lysates were immunoprecipitated with either the 4G10 anti-phosphotyrosine mAb (FIG. 2B; lanes 1-5), or with anti-PLCγ1 antibody (FIG. 2B; lanes 6-10), or with anti-LAT antibody (FIG. 2D; lane 11-15), and immunoblotted with the HRP-conjugated anti-phosphotyrosine Ab, RC20H. Lanes 1, 2, 6, 7, 11 and 12 corresponded to untreated Jurkat cells; lysates in lanes 3, 8, and 13 were prepared from cells treated with DMSO; lysates in lanes 4, 9, and 14 were prepared from cells treated with peptide 7; lysates in lanes 5, 10, and 15 were prepared from cells treated with peptide 8. (−) indicates nonstimulated cells; (+) indicates stimulation by CD3ε cross-linking. Each blot was stripped and reprobed with anti-PLCγ1 antibody (FIG. 2C) or anti-LAT antibody (FIG. 2E). Jurkat cells were electroporated in the presence of 10 μg of plasmid carrier DNA, 100 ng of Renilla luciferase control vector, and 2.5 μg of a luciferase reporter gene. Transfectants were treated with 10 μM of peptide 7, peptide 8, or DMSO as described above. Treated cells were stimulated with plate-bound anti-CD3ε mAb and 10 ng/ml of PMA (phorbol 12-myristate-13-acetate; FIG. 2F), or 10 ng/ml of PMA plus 2 μM of ionomycin (FIG. 2G) at 37° C. for 2 hr. Luciferase activities from lysates were measured using a Dual-Luciferase Reporter System and Monolight 2010 luminometer. […]

[2] = test system: human IL-2 promoter luciferase reporter in Jurkat cells; assay: IL-2 reporter gene analysis, anti-CD3ε mAb plus PMA (ZAP-70-dependent pathway); conditions: 10 μM peptide; anti-CD3 plus phorbol ester as stimulant, 2 hr; FIG. 2F
Method: (§1) Penetratin-containing peptides (FIG. 2A; peptide 7 (SEQ ID NO: 11) or peptide 8 (SEQ ID NO: 12)) were dissolved in DMSO and diluted to 20 μM in 500 μl of serum-free RPMI1640 medium. Ten million Jurkat cells, suspended in 500 μl of serum-free RPMI1640, were added to the peptide solutions for diluted DMSO control and incubated for 30 min at 37° C. Peptide-pretreated cells were treated with 1 μg of the anti-CD3ε mAb at 4° C. for 10 min, followed by another 10 min incubation in the presence of 5 μg of rabbit anti-mouse Ig. Cells were activated by shifting the temperature to 37° C. for 2 min and subsequently lysed in 1% NP40 lysis buffer. […] Luciferase activities from lysates were measured using a Dual-Luciferase Reporter System and Monolight 2010 luminometer.
(§2) Jurkat cells were electroporated at 250V, 800 μF settings (Invitrogen Life Technologies, Carlsbad, Calif.), in the presence of 10 μg of plasmid carrier DNA (pCAGGS vector), 100 ng of Renilla luciferase control vector (pRL null), and 2.5 μg of a luciferase reporter gene whose transcriptional activity is controlled by the human IL-2 promoter (IL-2-Luc). […] Luciferase activities from lysates were measured using a Dual-Luciferase Reporter System (Promega, Madison, Wis.) and Monolight 2010 luminometer (Analytical Luminescence Laboratory, San Diego, Calif.). […]

[3] = test system: human IL-2 promoter luciferase reporter in Jurkat cells; assay: IL-2 reporter gene analysis, PMA plus ionomycin (pathway that circumvents ZAP-70); conditions: 10 μM peptide; phorbol ester plus ionomycin; FIG. 2G
Method: as §1, §2

With “peptide 8: chimeric peptide with penetratin at the N terminus and peptide 4 at the C terminus (RQIKIWFQNRRMKWKKKLILFLLLL)” the “effect on anti-CD3-stimulated Tyr-phosphorylation of most proteins (in words)” value ([1]; 30 min peptide pretreatment at 37° C., anti-phosphotyrosine blot, FIG. 2B) was “little effect on most of these proteins”, the “Tyr phosphorylation of LAT (in words)” value ([1]; anti-LAT immunoprecipitates, FIG. 2D lane 15) was “reduced the Tyr phosphorylation” and the “Tyr phosphorylation of PLCγ1 (in words)” value ([1]; anti-PLCγ1 immunoprecipitates, FIG. 2B lane 10) was “reduced the Tyr phosphorylation of PLCγ1”. The “inhibition of gene expression (IL-2 reporter)” value [2] was “more than 70%” and the “effect on IL-2 reporter gene expression (in words)” value [3] was “no effect on gene expression”.
